# Patent US5300506A, “Indolylalkyl derivatives of pyrimidinylpiperazine for treating vascular headache” (Bristol-Myers Squibb Company, priority 1992, dated 1994)
# Counter-ions that a name gives are not always drawn.
# System: migraine sufferers
# Test: not given
# Details: migraine patients; cited from earlier work
row,Compound,effect on migraine headache (in words)
1,COC(=O)[C@H]1[C@H]2C[C@@H]3c4[nH]c5cc(OC)ccc5c4CCN3C[C@H]2C[C@@H](OC(=O)c2cc(OC)c(OC)c(OC)c2)[C@@H]1OC [reserpine],induces a typical migraine-type headache
2,NCCc1c[nH]c2ccc(O)cc12 [serotonin creatinine sulfate],induced headache can be alleviated
3,NCCc1c[nH]c2ccc(O)cc12 [serotonin],effective in treating migraine attacks

# Target: T1, 5-HT1D (Bos taurus, UniProt F1MGM3)
# T1 construct: from tissue
# Test: 5-HT1D binding site affinity (tritiated serotonin; methodology of Heuring and Peroutka with minor modifications)
# Details: in vitro
# Method: Determination of 5-HT1D binding properties was accomplished employing methodology such as that described by Heuring and Peroutka, J. Neurosci., 7(3), 1987, 894-903; with only minor modifications. In vitro IC50 (nM) test values were determined for the compounds of this invention employing tritiated serotonin.
# T1 sequence (F1MGM3 1-403): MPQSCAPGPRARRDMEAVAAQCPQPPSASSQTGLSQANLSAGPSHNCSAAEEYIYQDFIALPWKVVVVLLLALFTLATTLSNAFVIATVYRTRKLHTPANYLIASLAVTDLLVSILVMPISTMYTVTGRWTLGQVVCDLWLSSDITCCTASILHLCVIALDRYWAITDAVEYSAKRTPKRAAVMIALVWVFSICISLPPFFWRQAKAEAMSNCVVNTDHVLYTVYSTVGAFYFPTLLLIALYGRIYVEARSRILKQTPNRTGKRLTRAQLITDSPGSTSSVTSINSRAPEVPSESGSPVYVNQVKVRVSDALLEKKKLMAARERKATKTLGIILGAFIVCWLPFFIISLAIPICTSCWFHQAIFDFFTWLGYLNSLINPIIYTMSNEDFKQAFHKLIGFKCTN
row,Compound,IC50 [nM]
1,"CCOc1cncnc1N1CCN(CCCc2c[nH]c3ccccc23)CC1 [Example 52, 4-(5-Ethoxy-4-pyrimidinyl)-1-[3-(1H-indol-3-yl)propyl]piperazine hydrochloride hydrate]",2
2,COc1cncnc1N1CCN(C(C)CCc2c[nH]c3ccccc23)CC1 (stereo not drawn) [Example 53],5
3,"CCC(CCc1c[nH]c2ccccc12)N1CCN(c2ncncc2OC)CC1 (stereo not drawn) [Example 54, 3-[3-[4-(5-Methoxy-4-pyrimidinyl)-1-piperazinyl]pentyl]indole]",20.5
4,"COc1cncnc1N1CCN(CCCc2c[nH]c3ccc(O)cc23)CC1 [Example 55, 1-[3-(5-Hydroxy-1H-indol-3-yl)propyl]-4-(5-methoxy-4-pyrimidinyl)piperazine]",0.8
5,COc1cncnc1N1CCN(CCCc2c[nH]c3ccc(F)cc23)CC1 [Example 60],3
6,COc1cncnc1N1CCN(CCCc2c[nH]c3ccccc23)CC1 [Example 61],2.9
7,COc1cncnc1N1CCN(CCCc2c[nH]c3ccccc23)CC1C (stereo not drawn) [Example 62],4.2
8,COc1cncnc1N1CCN(CCCc2c[nH]c3ccc(NS(C)(=O)=O)cc23)CC1 [Example 63],5.2
9,COc1cncnc1N1CCN(CCCc2c[nH]c3ccc(N(C)S(C)(=O)=O)cc23)CC1 [Example 65],4.9
10,COc1cncnc1N1CCN(CCCc2c[nH]c3ccc(N(C)S(C)(=O)=O)cc23)CC1C (stereo not drawn) [Example 66],12
11,CCS(=O)(=O)Nc1ccc2[nH]cc(CCCN3CCN(c4ncncc4OC)CC3)c2c1 [Example 67],13.7
12,CCS(=O)(=O)N(C)c1ccc2[nH]cc(CCCN3CCN(c4ncncc4OC)CC3)c2c1 [Example 68],12.9
13,CCS(=O)(=O)N(C)c1ccc2[nH]cc(CCCN3CCN(c4ncncc4OC)C(C)C3)c2c1 (stereo not drawn) [Example 69],19.1
14,CCS(=O)(=O)Nc1ccc2[nH]cc(CCCN3CCN(c4ncncc4OC)C(C)C3)c2c1 (stereo not drawn) [Example 70],17.1
15,CCOc1ccc2[nH]cc(CCCN3CCN(c4ncncc4OC)CC3)c2c1 [Example 71],2.2
16,COc1cncnc1N1CCN(CCCc2c[nH]c3ccc(OCc4ccccc4)cc23)CC1 [Example 72],14.3
17,COc1ccc2[nH]cc(CCCN3CCN(c4ncncc4OC)CC3)c2c1 [Example 73],1.1
18,COc1cncnc1N1CCN(CCCc2c[nH]c3cc(F)c(F)cc23)CC1 [Example 74],29
19,COc1cncnc1N1CCN(CCCc2c[nH]c3c(F)ccc(F)c23)CC1 [Example 75],5.1
20,COc1cncnc1N1CCN(CCCc2c[nH]c3c(F)cc(F)cc23)CC1 [Example 76],8.1

# System: not given
# Test: not given
# Details: use in headache treatment; cited from earlier work
row,Compound,side-effects / dependence (in words)
1,CN1C[C@H](C(=O)N[C@]2(C)O[C@@]3(O)[C@@H]4CCCN4C(=O)[C@H](Cc4ccccc4)N3C2=O)C=C2c3cccc4[nH]cc(c34)C[C@H]21 [ergotamine],cause dependence with extended use
2,CC[C@@H](CO)NC(=O)[C@@H]1C=C2c3cccc4c3c(cn4C)C[C@H]2N(C)C1 [methysergide],severe use-limiting side-effects with long term usage
3,NCCc1c[nH]c2ccc(O)cc12 [serotonin],"restlessness, nausea, faintness, hyperpnea, facial flushing and parasthesias"

# System: plasma serotonin
# Test: not given
# Details: intramuscular injection; cited from earlier work
row,Compound,effect on plasma serotonin (in words)
1,COC(=O)[C@H]1[C@H]2C[C@@H]3c4[nH]c5cc(OC)ccc5c4CCN3C[C@H]2C[C@@H](OC(=O)c2cc(OC)c(OC)c(OC)c2)[C@@H]1OC [reserpine],lowers plasma serotonin
